Measurements from patent publication US9097693B2, “Simple analysis method of drugs” (priority 2005, dated 2015).
Where two headings read alike, the source gives them in different places.

Conditions: for nicotine content in hair: smoker, three 6 cm hairs (about 0.9 mg)
Procedure: Three 60 mm hairs (about 0.9 mg) were put in a stainless injection needle (inner diameter of 0.5 mm, outer diameter of 0.7 mm, the tip conical part length of 2 mm, the container part length of 80 mm, and one aperture of 0.4 mm in diameter in the lateral side of the end of the container). A syringe was fixed to the needle and methanol, dichloromethane and methanol each one ml were run in this order through the needle to wash the hairs.
Then, the needle was inserted into an injector (at 300° C.) of a gas chromatograph (Agilent, HP-6890) and held for 15 seconds. Then, dichloromethane (25 μL) was injected for desorption and a carrier gas was run. The chromatography was conducted under the following conditions. • Column diameter: 0.25 mm • Column length: 25 m • Column stationary phase: dimethylpolysiloxane (HR-1) • Column temperature: 50° C. to 300° C. (temperature rising: 5° C./min) • Carrier gas: helium • Carrier gas flow: 0.9 ml/min • Split ratio: 25:1 • Detector: MS (Agilent, HP-5972)
Three 6 cm hairs (about 0.9 mg) were used for the analysis.

With CN1CCCC1c1cccnc1 (stereo not shown) [nicotine] the “nicotine detection in hair” value (hair of smoker, three 60 mm hairs (about 0.9 mg), GC-MS) was “clearly detected”, the “nicotine content in hair” value (10 cigarettes per day, tobacco brand B (nominal nicotine 0.7 mg)) was 11.5 ng/mg and the “nicotine content in hair” value (15 cigarettes per day, tobacco brand E (nominal nicotine 0.8 mg)) was 8.2 ng/mg. The “nicotine content in hair” value (15 cigarettes per day, tobacco brand F (nominal nicotine 0.1 mg)) was 13.0 ng/mg, the “nicotine content in hair” value (20 cigarettes per day, tobacco brand A (nominal nicotine 1.2 mg)) was 12.1 ng/mg and the “nicotine content in hair” value (20 cigarettes per day, tobacco brand D (nominal nicotine 0.1 mg)) was 30.5 ng/mg. For the same compound, the “nicotine content in hair” value (30 cigarettes per day, tobacco brand C (nominal nicotine 0.4 mg)) was 55.3 ng/mg.
